Tested on: T1, benzoate dioxygenase
T1 construct: gene benA; benA amplicon 642 bp (about 213 residues, much shorter than a usual BenA of about 450), His-tag from pET28b, E. coli BL21(DE3), ion exchange; primers encode start MELDRGPAG and end RDVPVYPF; no reductase or beta subunit added
Assay: NADH oxidation at […] nm, Lineweaver-Burk
Assay type: biochemical, Rhodococcus ruber
Conditions: 25 °C, 3 min; reduced nicotinamide cofactor (NADH; reagent list prints the phosphate form), FeSO4; substrate range printed as 0.1-1.2 mM, far above the Km; pH of kinetic assay not stated

Km: 5.58 µM
Structure (SMILES): O=C(O)c1ccccc1 [sodium benzoate]
